Source: patent publication US10717997B2, “Method for storing gaseous hydrogen through producing methanoate (formate)” (Johann Wolfgang Goethe-Universität, priority 2013, dated 2020)
Entries after “also recorded” stand apart in the source; their conditions may differ.

System: cell suspensions of A. woodii
Experiment: Formate production by whole cell catalysis, cell suspensions of A. woodii converting H2 and CO2
Assay type: cell-based, Acetobacterium woodii
Details: ETH2120 30 μM
Procedure: Cell suspensions of A. woodii (1 mg/ml) were incubated using a gas phase of 0.8×10^5 Pa H2 and 0.2×10^5 Pa CO2 (1A). Adding the Na^+ ionophore ETH2120 (30 μM) gives rise to the production of up to 8 mM formate and the production of acetate stopped (1B). For experiments with whole cells, the inventors used cell suspensions of A. woodii for the conversion of H2 and CO2 to formate. The energy metabolism of A. woodii is strictly sodium ion dependent, and the ATP synthase uses Na^+ as the coupling ion. Thus, by omitting sodium ions in the buffer or by adding sodium ionophores (the inventors used the ionophore ETH2120 in this study), it is possible to switch off the energy metabolism specifically. Cells suspended in imidazole buffer (50 mM imidazole, 20 mM MgSO4, 20 mM KCl, 4 mM DTE, pH 7.0) containing 20 mM NaCl converted H2+CO2 to acetate, and only small amounts of formate were produced from a gas phase of 0.8×10^5 Pa II2 and 0.2×10^5 CO2. […] In agreement with the results obtained from the purified enzyme, foimate production was also observed when hydrogen was absent and the electron donor was CO but with lower rates compared to hydrogen as electron donor.

## O=C(COc1ccccc1OCC(=O)N(C1CCCCC1)C1CCCCC1)N(C1CCCCC1)C1CCCCC1 [ETH2120, N,N,N′,N′-Tetracyclohexyl-1,2-phenylenedioxydiacetamide]
A. woodii cell suspension (1 mg/ml), gas phase 0.8×10^5 Pa H2 and 0.2×10^5 Pa CO2
  production of formate (concentration reached): up to 8 mM
A. woodii cell suspension (1 mg/ml), gas phase 0.8×10^5 Pa H2 and 0.2×10^5 Pa CO2, imidazole buffer with 20 mM NaCl
  acetate production: stopped; also recorded: ceased almost completely
A. woodii cells in imidazole buffer with 20 mM NaCl, gas phase 0.8×10^5 Pa H2 and 0.2×10^5 CO2
  initial rate of formate production: 2 μmol/min×mg cell protein
